From article PMC8822754, “Chloride intracellular channel 1 activity is not required for glioblastoma development but its inhibition dictates glioma stem cell responsivity to novel biguanide derivatives” (Journal of Experimental & Clinical Cancer Research : CR, 2022) come the findings set out here.

This experiment concerns the target Chloride intracellular channel-1 (CLIC1) (Homo sapiens, UniProt O00299). As to the kind of experiment: microscale thermophoresis (also CLIC1 current block by patch clamp in GBM3 GSCs). In kind it is binding. Further details: recombinant CLIC1, NHS dye-labelled.

For orientation: Kd means the constant that tells how readily two partners part at equilibrium.

For `COc1ccc(/N=C(\N)N=C(N)N)cc1` [Q48], the Kd is 15.6 ± 1.9 µM.

For the molecule `COc1ccc(N2C(N)=NC(N)=NC2(C)C)cc1` [Q54], the Kd was 1900 ± 500 µM.
